FAM = 5(6)-carboxyfluorescein (C21H12O7), a fluorescent dye

The first experiment concerns HeLa cells. Description: Evaluation of cell membrane penetration by flow cytometry. It is filed as cell-based, human. The following applies: 10 μM additive, 0.5% DMSO, 20 hours at 37° C., 5% CO2, FAM fluorescence, detector FL2. On the procedure:
As the eukaryotic cells, HeLa cells (established cell strain derived from a human cervical cancer cell) were used and the cell membrane penetration of the peptides 1 to 6 was analyzed. In Examples 1 to 6, the prepared samples 1 to 6 were used, respectively, and in Example 7, the FAM solution was used.
The HeLa cell was cultured in 10% fetal bovine serum (FBS)-containing Dulbecco's modified Eagle's medium (DMEM (Cat No. 043-30085, manufactured by FUJIFILM Wako Pure Chemical Corporation)), which is a normal culture medium.
The HeLa cell that adhered to a culture plate was cleaned with PBS and then, a 0.25%-trypsin/EDTA solution was added thereto, and incubation was performed for three minutes at 37° C. After the incubation, the aforementioned 10% FBS-containing DMEM was added to deactivate trypsin and then, five-minute centrifugal separation was performed at 150×g to precipitate the cells. After the supernatant generated by the centrifugal separation was removed, the 10% FBS-containing DMEM was added to the precipitate (cell pellet) to prepare a cell suspension of about 2×10^5 cells/mL. The cell suspension was added by 1 mL to a well of a commercially available six-hole (well) plate (manufactured by AGC TECHNO GLASS Co., Ltd.) so as to seed the cell (about 2×10^5 cells/well). In addition, the 2 mM sample solution 1 was diluted with the 10% FBS-containing DMEM to prepare the sample solution 1 in which the concentration of the sample 1 was 20 μM. Then, 1 mL of the 20 μM sample solution 1 was added to the well (that is, so that the concentration of the sample 1 became 10 μM and the DMSO concentration became 0.5% in the culture solution in the well). After that, the cell was incubated for 20 hours at 37° C. under a 5% CO2 condition.
After the 20-hour incubation, the culture supernatant was removed from the well and the cells in the well were cleaned twice with 1 mL of PBS. Next, 200 μL of the 0.25% trypsin/EDTA solution was added to the well and the incubation was performed for three minutes at 37° C. After the incubation, 400 μL of the 10% FBS-containing DMEM was added to the well to deactivate the trypsin. Subsequently, the cell suspension in the well was transferred to a tube and the cells were collected. After that, 600 μL of PBS was added further to the well to clean the well. Then, PBS in the well was transferred to the tube, so that the cells remaining in the well were collected in the tube. This tube was subjected to five-minute centrifugal separation at 4° C. under a condition of 210×g. After the centrifugal separation, the supernatant was removed and the precipitate (cell pellet) was suspended (cleaned) with 1 mL of PBS, which was followed by the centrifugal separation under the same condition as that described above. After this operation was repeated twice, the supernatant was removed and thus, the cells (cell pellet) cultured in a culture medium containing the sample 1 were obtained.
Regarding the obtained cells (cell pellet), the cell membrane penetration of the sample 1 was analyzed using a flow cytometer. As the flow cytometer, On-Chip Flowcytometer (manufactured by On-Chip Biotechnologies Co., LTD.) was used.
For such an analysis, the obtained cell pellet was suspended with 50 μL of PBS. To this suspension, additionally, 50 μL of 2× sample buffer for the flow cytometer was added so as to prepare a cell suspension for analysis.
Using the aforementioned flow cytometer, gating based on forward scatter (FSC) and side scatter (SSC) was performed to set a gate about a cell group to be analyzed, and the fluorescence intensity was measured about the cell group in this gate. Note that the analysis was performed so that the cell group contained at least 10000 or more cells. The fluorescence intensity was measured using a fluorescence detector FL2 of the flow cytometer (optimum detection wavelength around 543 nm) capable of detecting the fluorescence wavelength of FAM. […]
(In flow cytometry, cells or beads pass a laser one at a time.)
Regarding “5 (6)-carboxyfluorescein [Example 7, reference compound]”, the “MFI (mean fluorescence intensity)” value was 10.5.

For the substance “Ac-KSRKYTSWYVALKR-FAM (Ac-KSRKYTSWYVALKR-{FAM}) [Example 4]”, the “MFI (mean fluorescence intensity)” value is 13.2.

On to “Ac-KSKKYTSWYVALKR-FAM (Ac-KSKKYTSWYVALKR-{FAM}) [Example 3]”, for which the “MFI (mean fluorescence intensity)” value worked out at 14.6.

“Ac-RSRKYTSWYVALKRWPC-FAM (Ac-RSRKYTSWYVALKRWPC-{FAM}) [Example 1]”: the “MFI (mean fluorescence intensity)” value is recorded as 50.4.

Turning to “Ac-RSKKYTSWYVALKR-FAM (Ac-RSKKYTSWYVALKR-{FAM}) [Example 5]”, the “MFI (mean fluorescence intensity)” value stood at 12.8.

In the case of Ac-RSRKYTSWYVALKK-FAM [Example 6], the “MFI (mean fluorescence intensity)” value is given as 11.1.

In the case of “Ac-RSRKYTSWYVALKR-FAM (Ac-RSRKYTSWYVALKR-{FAM}) [Example 2, reference compound]”, the “MFI (mean fluorescence intensity)” value is on record as 13.4.

Staying with this experiment, now noted: 10 μM, 20 hours, compared with Example 2 (construct including the peptide 2).
With “Ac-RSRKYTSWYVALKRWPC-FAM (Ac-RSRKYTSWYVALKRWPC-{FAM}) [Example 1]”, the “cell membrane penetration / value of MFI, comparison in words” value is on record as “remarkably higher”.

These data come from US20250262333A1, “Construct for Transferring Foreign Substance, and Use Thereof” (TOAGOSEI CO., LTD., priority 2022, published 2025).
